Assay [1] relates to PTPN2. Nature of the assay: HiBiT-Degradation B16F10.4 PTPN2. Particulars: B16F10.4 cells, 24.0 hours. Format: cell-based. (In general: HiBiT is a short tag that completes a luciferase, so light tracks the accessible tagged protein.)
Assay [2] has as its target T1, PTPN2 (Homo sapiens, UniProt P17706).
T1 construct: expressed in transfected cells; host or cells: 293T (293T.109 HiBiT-PTPN2 line; parental 293T WT from ATCC)
T1 sequence (P17706 1-415): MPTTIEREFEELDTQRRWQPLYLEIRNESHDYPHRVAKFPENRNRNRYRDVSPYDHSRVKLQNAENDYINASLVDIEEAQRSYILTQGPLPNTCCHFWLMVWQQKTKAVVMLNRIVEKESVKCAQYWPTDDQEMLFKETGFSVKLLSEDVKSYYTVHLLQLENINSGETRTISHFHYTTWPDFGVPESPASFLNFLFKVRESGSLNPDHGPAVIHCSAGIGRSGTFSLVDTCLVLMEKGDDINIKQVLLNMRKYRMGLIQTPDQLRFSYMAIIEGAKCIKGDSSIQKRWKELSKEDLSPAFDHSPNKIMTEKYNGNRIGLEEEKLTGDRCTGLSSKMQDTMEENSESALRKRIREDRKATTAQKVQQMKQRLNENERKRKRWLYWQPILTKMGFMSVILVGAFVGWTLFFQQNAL
Nature of the assay: HiBiT-Degradation 293T.109 PTPN2 (Nano-Glo HiBiT Lytic Assay). Format: cell-based. Particulars: 293T.109 (HiBiT-PTPN2) cells, 24.0 hours. The method, boiled down: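 Luminescence from a lytic HiBiT read gave PTPN2 levels after 24 h compound exposure at 37° C. Compounds were tested at 11 half-log points from a 10 μM top concentration, in duplicate. The cells were 293T engineered with an N-terminal HiBiT–PTPN2 fusion, plated at 5000 per well, with untreated wells as negative control and no-reagent wells as positive control.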

For orientation: DC50 means the concentration at which degradation of the target reaches its halfway point. The low end stands for degradation at low concentration, the high end for degradation only at high concentration.

As for `Cn1c(=O)n(C2CCC(=O)NC2=O)c2ccc(-c3ccc(CNCC(C)(C)CCOc4ccc5cc(O)c(N6CC(=O)NS6(=O)=O)c(F)c5c4)cc3)cc21` (centres unmarked) [Example 153, 3-[5-[4-[[[4-[[8-fluoro-6-hydroxy-7-(1,1,4-trioxo-1,2,5-thiadiazolidin-2-yl)-2-naphthyl]oxy]-2,2-dimethyl-butyl]amino]methyl]phenyl]-3-methyl-2-oxo-benzimidazol-1-yl]piperidine-2,6-dione], the DC50 in assay [1] lay in the range of 200 to 1000 nM; in assay [2], 50 to 200 nM.
For `O=C(CCOCCOCCNC(=O)CNc1cccc2c1CN(C1CCC(=O)NC1=O)C2=O)NCCOc1ccc2cc(O)c(N3CC(=O)NS3(=O)=O)c(F)c2c1` (centres unmarked) [Example 46], in that order: at least 1000 nM and at least 1000 nM.
The corresponding values for `Cn1c(=O)n(C2CCC(=O)NC2=O)c2ccc(N3CCC(CC(=O)Nc4ccc5c(F)c(N6CC(=O)NS6(=O)=O)c(O)cc5c4)CC3)cc21` (centres unmarked) [Example 78, N-(6-(1,1-dioxido-4-oxo-1,2,5-thiadiazolidin-2-yl)-5-fluoro-7-hydroxynaphthalen-2-yl)-2-(1-(1-(2,6-dioxopiperidin-3-yl)-3-methyl-2-oxo-2,3-dihydro-1H-benzo[d]imidazol-5-yl)piperidin-4-yl)acetamide] are 10 to 50 nM and 10 to 50 nM.
In the case of `Cn1c(=O)n(C2CCC(=O)NC2=O)c2ccc(C3CCN(CC(=O)NCCOc4ccc5cc(O)c(N6CC(=O)NS6(=O)=O)c(F)c5c4)CC3)cc21` (centres unmarked) [Example 4, N-(2-((7-(1,1-dioxido-4-oxo-1,2,5-thiadiazolidin-2-yl)-8-fluoro-6-hydroxynaphthalen-2-yl)oxy)ethyl)-2-(4-(1-(2,6-dioxopiperidin-3-yl)-3-methyl-2-oxo-2,3-dihydro-1H-benzo[d]imidazol-5-yl)piperidin-1-yl)acetamide], the figures for the DC50 in assay [1] and in assay [2] were at least 1000 nM and 50 to 200 nM, respectively.
As to `O=C1CCC(N2C(=O)c3cccc4c(C5CCN(CC(=O)Nc6ccc7c(F)c(N8CC(=O)NS8(=O)=O)c(O)cc7c6)CC5)ccc2c34)C(=O)N1` (centres unmarked) [Example 26, 2-[4-[1-(2,6-dioxo-3-piperidyl)-2-oxo-benzo[cd]indol-6-yl]-1-piperidyl]-N-[5-fluoro-7-hydroxy-6-(1,1,4-trioxo-1,2,5-thiadiazolidin-2-yl)-2-naphthyl]acetamide], the DC50 in assay [1] and in assay [2] was 50 to 200 nM throughout.
`Cn1nc(C2CCC(=O)NC2=O)c2ccc(C3CCN(C(=O)Cn4cc(-c5ccc6c(F)c(N7CC(=O)NS7(=O)=O)c(O)cc6c5)cn4)CC3)cc21` (centres unmarked) [Example 79, 3-[6-[1-[2-[4-[5-fluoro-7-hydroxy-6-(1,1,4-trioxo-1,2,5-thiadiazolidin-2-yl)-2-naphthyl]pyrazol-1-yl]acetyl]-4-piperidyl]-1-methyl-indazol-3-yl]piperidine-2,6-dione]: the half-maximal degradation concentration (DC50) in assay [1] was 200 to 1000 nM; in assay [2], 10 to 50 nM.
Take `O=C1CCC(Nc2ccc(C3CCN(CC(=O)Nc4ccc5c(F)c(N6CC(=O)NS6(=O)=O)c(O)cc5c4)CC3(F)F)cc2)C(=O)N1` (centres unmarked) [Example 113, 2-[4-[4-[(2,6-dioxo-3-piperidyl)amino]phenyl]-3,3-difluoro-1-piperidyl]-N-[5-fluoro-7-hydroxy-6-(1,1,4-trioxo-1,2,5-thiadiazolidin-2-yl)-2-naphthyl]acetamide]: the DC50 in assay [1] and in assay [2] was 200 to 1000 nM throughout.
With `Cn1c(=O)n(C2CCC(=O)NC2=O)c2ccc(C3CCN(CCn4cc(-c5ccc6cc(O)c(N7CC(=O)NS7(=O)=O)c(F)c6c5)cn4)CC3)cc21` (centres unmarked) [Example 135, 3-[5-[1-[2-[4-[8-fluoro-6-hydroxy-7-(1,1,4-trioxo-1,2,5-thiadiazolidin-2-yl)-2-naphthyl]pyrazol-1-yl]ethyl]-4-piperidyl]-3-methyl-2-oxo-benzimidazol-1-yl]piperidine-2,6-dione], the DC50 in assay [1] and in assay [2] was 50 to 200 nM in each case.
Take `Cn1c(=O)n(C2CCC(=O)NC2=O)c2ccc(C3CCN(C(=O)Cn4cc(-c5ccc6c(F)c(N7CC(=O)NS7(=O)=O)c(O)cc6c5)cn4)CC3(F)F)cc21` (centres unmarked) [Example 73, 3-[5-[3,3-difluoro-1-[2-[4-[5-fluoro-7-hydroxy-6-(1,1,4-trioxo-1,2,5-thiadiazolidin-2-yl)-2-naphthyl]pyrazol-1-yl]acetyl]-4-piperidyl]-3-methyl-2-oxo-benzimidazol-1-yl]piperidine-2,6-dione]: the 50% degradation concentration (DC50) in assay [1] and in assay [2] was 10 to 50 nM in each case.
Regarding `Cn1c(=O)n(C2CCC(=O)NC2=O)c2ccc(C3CCN(C(=O)CN4CC[C@H](COc5ccc6cc(O)c(N7CC(=O)NS7(=O)=O)c(F)c6c5)C4)CC3)cc21` (stereo partly drawn) [Example 138, 3-[5-[1-[2-[(3S)-3-[[8-fluoro-6-hydroxy-7-(1,1,4-trioxo-1,2,5-thiadiazolidin-2-yl)-2-naphthyl]oxymethyl]pyrrolidin-1-yl]acetyl]-4-piperidyl]-3-methyl-2-oxo-benzimidazol-1-yl]piperidine-2,6-dione], the DC50 in assay [1] and in assay [2] was 50 to 200 nM in each case.
In the case of `Cn1c(=O)n(C2CCC(=O)NC2=O)c2ccc(C3CCN(CC(=O)N4CC(Oc5ccc6cc(O)c(N7CC(=O)NS7(=O)=O)c(F)c6c5)C4)CC3(F)F)cc21` (centres unmarked) [Example 80, 3-[5-[3,3-difluoro-1-[2-[3-[[8-fluoro-6-hydroxy-7-(1,1,4-trioxo-1,2,5-thiadiazolidin-2-yl)-2-naphthyl]oxy]azetidin-1-yl]-2-oxo-ethyl]-4-piperidyl]-3-methyl-2-oxo-benzimidazol-1-yl]piperidine-2,6-dione], the DC50 lay within 50 to 200 nM in assay [1] and 10 to 50 nM in assay [2].
For `CC(Nc1cccc2c1C(=O)N(C1CCC(=O)NC1=O)C2=O)c1cn(CCC(=O)Nc2ccc3c(F)c(N4CC(=O)NS4(=O)=O)c(O)cc3c2)nn1` (centres unmarked) [Example 66], in that order: at least 1000 nM and 200 to 1000 nM.
For `Cn1c(=O)n(C2CCC(=O)NC2=O)c2ccc(C3CCN(CCN4CC[C@@H](COc5ccc6cc(O)c(N7CC(=O)NS7(=O)=O)c(F)c6c5)C4)CC3)cc21` (stereo partly drawn) [Example 149, 3-[5-[1-[2-[(3R)-3-[[8-fluoro-6-hydroxy-7-(1,1,4-trioxo-1,2,5-thiadiazolidin-2-yl)-2-naphthyl]oxymethyl]pyrrolidin-1-yl]ethyl]-4-piperidyl]-3-methyl-2-oxo-benzimidazol-1-yl]piperidine-2,6-dione], in that order: 50 to 200 nM and 10 to 50 nM.
The corresponding values for `Cn1c(=O)n(C2CCC(=O)NC2=O)c2ccc(C3CCN(CCC(=O)N4CCC(c5ccc6cc(O)c(N7CC(=O)NS7(=O)=O)c(F)c6c5)C4)CC3)cc21` (centres unmarked) [Example 72, 3-[5-[1-[3-[3-[8-fluoro-6-hydroxy-7-(1,1,4-trioxo-1,2,5-thiadiazolidin-2-yl)-2-naphthyl]pyrrolidin-1-yl]-3-oxo-propyl]-4-piperidyl]-3-methyl-2-oxo-benzimidazol-1-yl]piperidine-2,6-dione] are 50 to 200 nM and 10 to 50 nM.
For the compound `Cn1c(=O)n(C2CCC(=O)NC2=O)c2ccc(C3CCN(CC(=O)N4CCC[C@H](COc5ccc6cc(O)c(N7CC(=O)NS7(=O)=O)c(F)c6c5)C4)CC3)cc21` (stereo partly drawn) [Example 134, 3-[5-[1-[2-[(3S)-3-[[8-fluoro-6-hydroxy-7-(1,1,4-trioxo-1,2,5-thiadiazolidin-2-yl)-2-naphthyl]oxymethyl]-1-piperidyl]-2-oxo-ethyl]-4-piperidyl]-3-methyl-2-oxo-benzimidazol-1-yl]piperidine-2,6-dione], the DC50 was in the range of 200 to 1000 nM in assay [1] and 50 to 200 nM in assay [2].
For `Cc1cc(CC(=O)Nc2ccc3c(F)c(N4CC(=O)NS4(=O)=O)c(O)cc3c2)ccc1Nc1ccc2c(C3CCC(=O)NC3=O)nn(C)c2c1` (centres unmarked) [Example 185, N-(6-(1,1-dioxido-4-oxo-1,2,5-thiadiazolidin-2-yl)-5-fluoro-7-hydroxynaphthalen-2-yl)-2-(4-((3-(2,6-dioxopiperidin-3-yl)-1-methyl-1H-indazol-6-yl)amino)-3-methylphenyl)acetamide], in that order: 50 to 200 nM and 10 to 50 nM.
For `O=C1CCC(N2Cc3c(OCC(=O)N4CCC(C(=O)N5CC(Oc6ccc7cc(O)c(N8CC(=O)NS8(=O)=O)c(F)c7c6)C5)CC4)cccc3C2=O)C(=O)N1` (centres unmarked) [Example 32], in that order: 200 to 1000 nM and 200 to 1000 nM.
The corresponding values for `O=C(CN1CCC(c2ccc(NC3CCC(=O)NC3=O)c(Oc3ccccc3)c2)CC1)NCCOc1ccc2cc(O)c(N3CC(=O)NS3(=O)=O)c(F)c2c1` (centres unmarked) [Example 96, 2-[4-[4-[(2,6-dioxo-3-piperidyl)amino]-3-phenoxy-phenyl]-1-piperidyl]-N-[2-[[8-fluoro-6-hydroxy-7-(1,1,4-trioxo-1,2,5-thiadiazolidin-2-yl)-2-naphthyl]oxy]ethyl]acetamide] are 50 to 200 nM and 50 to 200 nM.
For `O=C1CCC(N2C(=O)c3ccc(NCc4cnn(C5CN(C(=O)Nc6ccc7c(F)c(N8CC(=O)NS8(=O)=O)c(O)cc7c6)C5)c4)cc3C2=O)C(=O)N1` (centres unmarked) [Example 64], the DC50 in assay [1] is at least 1000 nM; in assay [2], 200 to 1000 nM.
